In US20040043403A1, “Process for determining the biological activity of epidermal growth factor receptor tyrosine kinase inhibitors” (priority 2000, published 2004):

Experiments:
[1] = tested on: A431 cells; experiment: Real time RT-PCR gene expression in A431 cells; type: cell-based, human
Procedure: (§1) 20 million tissue culture cells (about 80% confluent) or 200 million WBCs are incubated for 2 or 24 h in culture medium containing 3 μM of an EGFR tyrosine kinase inhibitor or 0.03% DMSO. Total RNA from cell pellet is isolated using the RNeasy kit (Qiagen). mRNA is isolated using the oligotex mRNA purification kit (Qiagen). The quality of the obtained mRNA is tested by real time RT-PCR using beta-Actin primers (PE Applied Biosystems) with an amplicon size of 300 base pairs (bp). The total RNA is used as a reference to calculate the amount of mRNA-enrichment in the oligotex purified samples. 2 million A431 cells at about 80% confluency are treated with an EGFR tyrosine kinase inhibitor (100, 300 or 3000 nM) or 0.03% DMSO and incubated for 4, 8, 16 or 24 h. Total RNA is isolated using the RNeasy kit. The primers and probes are designed from mRNA sequences within the coding region or in the 3′ untranslated region (Table 2). For real time RT-PCR, RNA concentrations between 1 and 50 ng/reaction are used to obtain signals between 15-35 cycles. For each RNA preparation RT-PCR reactions are performed with and without reverse transcriptase to check for genomic DNA contamination. In all RNA samples tested, genomic DNA contamination is less than 1%. To normalize for variability in the initial concentration and quality of the total RNA, Glyceraldehyde-3-phosphate dehydrogenase (GAPDH) is used as an endogenous reference in all quantification experiments. For RT-PCR a one step, two-enzyme system is chosen. The TaqMan PCR Core Reagent Kit (PE #N808-0228) plus the reverse transcriptase MuLV (PE Biosystems # N808-0018) and RNase inhibitor (Roche Diagnostics # 799 025) are mixed as described in the manufacturers protocol. Triplicate measurements are done for target and for reference reactions. […] RT-PCR reactions are done with RNA concentrations of 2.5, 5, 10, 20, 40 and 80 ng per reaction. The absolute value of the slope of (log input amount) vs. ΔCT should be <0.1. The ΔCT value is determined by subtracting the average reference CT values from the average target CT values of the three measurements. Relative quantification is performed in triplicates, reference and target, using the RT-PCR protocol described above.

[2] = tested on: WBC; experiment: Real time RT-PCR gene expression in White Blood Cells; type: cell-based, human; conditions: 3 μM, 24 h
Procedure: as §1, with “The leucocyte-enriched fraction (buffy coat) is obtained from a healthy donor. 10 ml buffy coat, diluted with 25 ml RPMI 1640 medium is layered on 4 ml Ficoll-Paque (Pharmacia) and centrifuged at 1′200×g for 15 min. The White Blood Cell (WBC) layer at the interface is removed, the cells are washed 2 times with RPMI 1640 medium to remove platelets. WBCs are cultured in RPMI 1640 medium plus 10% Fetal Calf Serum (FCS) in T-150 flask, 100 million cells/100 ml and are incubated for 1 h at 37° C. before treatment. 20 million” for “20 million”, “purified samples. The primers” for “purified samples. 2 million A431 cells at about 80% confluency are treated with an EGFR tyrosine kinase inhibitor (100, 300 or 3000 nM) or 0.03% DMSO and incubated for 4, 8, 16 or 24 h. Total RNA is isolated using the RNeasy kit. The primers”, “described above. […] Expression levels for the three genes, calculated relative to NCI-H520, show big differences between the various cell types (Table 5). […]” for “described above.”

[3] = A431, 3 μM, 24 h, relative to DMSO-treated NCI-H520 calibrator
[4] = A431 cells, 3 μM, 24 hours, Experiment 1
[5] = A431 cells, 3 μM, 24 hours, Experiment 2
[6] = A431 cells, 3 μM, 24 hours, Experiment 3
[7] = WBC, relative to DMSO-treated NCI-H520 calibrator

C[C@@H](Nc1ncnc2[nH]c(-c3ccc(O)cc3)cc12)c1ccccc1 [COMPOUND A, (R)-6-(4-hydroxy-phenyl)-4-[(1-phenyl-ethyl)-amino]-7H-pyrrolo[2,3-d]pyrimidine]
Relative Clusterin expression [1, 3]: 247.28 n-fold
Relative TRAIL expression [1, 3]: 99.50 n-fold
Relative VAC-beta expression [1, 3]: 57.20 n-fold
Induction of clusterin gene expression, dose and time dependency (FIGS. 1A and 1B) ([1]; A431 cells, 100 nM, 300 nM and 3 μM, 4 to 24 h, real time RT-PCR): shows dose and time dependency
Gene induction, Real time RT-PCR Experiment 1: Acute phase serum amyloid A protein [1, 4]: 6.6
Gene induction, Real time RT-PCR Experiment 1: Cathepsin H [1, 4]: 5.2
Gene induction, Real time RT-PCR Experiment 1: Caveolin [1, 4]: 2.8 ± 0.2
Gene induction, Real time RT-PCR Experiment 1: Complement component 3 (C3) [1, 4]: 5.6
Gene induction, Real time RT-PCR Experiment 1: Complement cytolysis inibitor (Clusterin) [1, 4]: 11.2 ± 2.0
Gene induction, Real time RT-PCR Experiment 1: DNA binding protein inhibitor ID-3 [1, 4]: 4.4
Gene induction, Real time RT-PCR Experiment 1: Extracellular protein S1-5 [1, 4]: 3.2 ± 1.7
Gene induction, Real time RT-PCR Experiment 1: TGF-beta induced gene [1, 4]: 5.2
Gene induction, Real time RT-PCR Experiment 1: TRAIL [1, 4]: 7.8 ± 1.6
Gene induction, Real time RT-PCR Experiment 1: VAC-beta (annexin VIII) [1, 4]: 2.8 ± 1.5
Gene induction, Real time RT-PCR Experiment 2: Acute phase serum amyloid A protein [1, 5]: 2.5 ± 1.1
Gene induction, Real time RT-PCR Experiment 2: Cathepsin H [1, 5]: 2.6 ± 0.9
Gene induction, Real time RT-PCR Experiment 2: Caveolin [1, 5]: 1.5 ± 0.4
Gene induction, Real time RT-PCR Experiment 2: Complement component 3 (C3) [1, 5]: 2.5 ± 0.4
Gene induction, Real time RT-PCR Experiment 2: Complement cytolysis inibitor (Clusterin) [1, 5]: 5.2 ± 1.4
Gene induction, Real time RT-PCR Experiment 2: DNA binding protein inhibitor ID-3 [1, 5]: 2.2 ± 0.1
Gene induction, Real time RT-PCR Experiment 2: Extracellular protein S1-5 [1, 5]: 1.7 ± 0.2
Gene induction, Real time RT-PCR Experiment 2: TRAIL [1, 5]: 4.1 ± 1.4
Gene induction, Real time RT-PCR Experiment 2: VAC-beta (annexin VIII) [1, 5]: 2.4 ± 0.9
Gene induction, Real time RT-PCR Experiment 3: Acute phase serum amyloid A protein [1, 6]: 3.3
Gene induction, Real time RT-PCR Experiment 3: Cathepsin H [1, 6]: 2.1
Gene induction, Real time RT-PCR Experiment 3: Caveolin [1, 6]: 2.6
Gene induction, Real time RT-PCR Experiment 3: Complement component 3 (C3) [1, 6]: 2.0
Gene induction, Real time RT-PCR Experiment 3: Complement cytolysis inibitor (Clusterin) [1, 6]: 6.2
Gene induction, Real time RT-PCR Experiment 3: DNA binding protein inhibitor ID-3 [1, 6]: 2.4
Gene induction, Real time RT-PCR Experiment 3: Extracellular protein S1-5 [1, 6]: 1.2 ± 0.5
Gene induction, Real time RT-PCR Experiment 3: TRAIL [1, 6]: 5.7 ± 0.03
Gene induction, Real time RT-PCR Experiment 3: VAC-beta (annexin VIII) [1, 6]: 2.5 ± 0.8
Relative Clusterin expression [2, 7]: 2.03 n-fold
Relative TRAIL expression [2, 7]: 22.73 n-fold
Relative VAC-beta expression [2, 7]: 2.16 n-fold
TRAIL repression in WBCs ([2]; WBCs, versus DMSO): 2.5 fold
